Data reported in patent US7547676B2, “Antagonist peptides to the C5A chemotactic function of vitamin D binding protein” (The Research Foundation of State University of New York, priority 2004, dated 2009).
Changes are numbered by the printed parent chain.

T1: DBP immobilized on a Biacore sensor chip (Homo sapiens, UniProt P02774)
T1 construct: DBP was purified from human plasma; purchased Biodesign International; host or cells: human plasma
T1 sequence (P02774 17-474): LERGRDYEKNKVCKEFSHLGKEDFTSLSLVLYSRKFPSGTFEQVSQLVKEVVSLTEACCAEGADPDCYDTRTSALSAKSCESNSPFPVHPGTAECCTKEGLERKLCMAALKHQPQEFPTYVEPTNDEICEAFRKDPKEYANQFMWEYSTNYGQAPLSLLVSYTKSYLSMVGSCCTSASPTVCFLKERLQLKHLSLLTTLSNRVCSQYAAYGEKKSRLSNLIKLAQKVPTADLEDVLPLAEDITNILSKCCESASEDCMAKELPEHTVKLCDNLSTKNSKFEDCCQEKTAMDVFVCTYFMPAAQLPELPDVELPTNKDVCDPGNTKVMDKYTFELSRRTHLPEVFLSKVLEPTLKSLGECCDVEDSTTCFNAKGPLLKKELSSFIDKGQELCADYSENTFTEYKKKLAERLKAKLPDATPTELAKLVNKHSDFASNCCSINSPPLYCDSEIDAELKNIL

B1: full-length reDBP: E. coli expressed full-length human DBP (Gc-2 allele), residues 1-458 (protein)
chain: T1 sequence (P02774 17-474) with T420K, H429R

Experiments:
[1] = biological target: T1, DBP immobilized on a Biacore sensor chip; assay: Biacore surface plasmon resonance: U937-C5aR cell binding to immobilized DBP; conditions: FIG. 9A; 10^6 cells/ml pretreated with 50 nM DBP or 0.5 μM DBP peptide
Experimental: FIG. 8A and FIG. 8B show immobilization of DBP on a Biacore surface plasmon resonance sensor chip CM5. Purified DBP in HBSS (5 μM) was coupled to the sensor chip. Coupling was detected using 5 μg/ml affinity-purified anti-DBP (FIG. 8A). Different concentrations of U937-C5aR cells in HBSS were injected into the flow cell and allowed to interact with the immobilized DBP (FIG. 8B). Data is expressed as response units of the molecular interaction on the sensor chip.
(§1) FIGS. 9A to 9C show the effect of pretreating U937-C5aR cells with purified DBP or DBP peptides on the binding to DBP immobilized on a Biacore sensor chip. FIG. 9A: 10^6 cells/ml in HBSS were not treated (control), pretreated with 50 nM DBP, 0.5 μM DBP peptide 1 (p1) or DBP peptide 2 (p2). FIG. 9B: DBP peptide 1 immobilized to the Biacore sensor chip. FIG. 9C: DBP peptide 2 immobilized to the Biacore sensor chip. Data is expressed as response units of the molecular interaction on the sensor chip.
U937-C5aR cells (10^6 cells/ml in HBSS) were pretreated with a 25 μg/ml control IgG, 50 nM purified DBP or 25 μg/ml affinity-purified anti-CD44 and then allowed to interact with DBP immobilized on a Biacore sensor chip. Data is expressed as response units of the molecular interaction on the sensor chip.
According to the present invention, the interaction of an immobilized ligand, e.g., immobilized DBP, binding to cells can be measure by any established technology available in the art, e.g., by surface plasmon resonance (SPR) or Biacore technology. For example, in the present invention, the binding of U937-C5aR cells to immobilized DBP were examined by Biacore technology, the result of which is used to further determine if the DBP peptides generated in the present invention can alter the interaction U937-C5aR cells and DBP. […] To investigate further the effect of DBP peptides on cell binding, peptide 1 (FIG. 9B) and peptide 2 (FIG. 9C) were immobilized to Biacore sensor chips. […] Finally, the present invention also identifies that CD44 on the cell surface binds DBP and can, in part, mediate the C5a chemotactic cofactor effect of DBP (McVoy and Kew, J. Immunol. 175:4754, 2005). Therefore, using Biacore technology the present invention addresses the effect of blocking CD44 on U937-C5aR binding to immobilized DBP (FIG. 10). In the present invention, U937-C5aR cells were pretreated with either an irrelevant goat IgG (negative control), purified soluble DBP (positive control) or affinity-purified goat anti-CD44. […] These Biacore experiments have provided a powerful quantitative tool to investigate the cell binding region on DBP and examine the effects on DBP peptides on this interaction.

U937-C5aR cells [2] = assay: C5a-induced intracellular calcium mobilization in U937-C5aR cells; assay type: cell-based, human; conditions: FIG. 11B, 12; 0.5 μM DBP peptide, 50 nM DBP, 0.1 nM C5a
Experimental: FIG. 11A and FIG. 11B show the effect of DBP on C5a-induced intracellular calcium mobilization in U937-C5aR cells. U937-C5aR cells (10^7 cells/ml) were resuspended in HBSS-1% BSA containing 2 μM Fluo-3 AM and incubated at 37° C. for 40 minutes. Cells incubated without the dye were used as a control to measure autofluorescence (Fmin). Following the dye uptake, cells were washed twice then suspended at 5×10^6 cells/ml in HBSS containing 1% BSA. For the pretreatment experiments, cells were incubated for 30 min at 22° C. with 50 nM DBP or 0.5 μM DBP peptide 1 (p1). For each measurement, 400 μl of cell suspension was added to a cuvette and stimulated with the indicated concentration of C5a (FIG. 11A) or 0.1 nM C5a (FIG. 11B). Fluorescence was then measured immediately using a Perkin-Elmer LS-5 fluorometer at 505 nm excitation, 526 nm emission for Fluo-3 AM. Fmax was measured by treating labeled cells with 60 μM digitonin. Intracellular free calcium concentrations were calculated using the following formula: (Ca^2+)=Kd (F−Fmin)/(Fmax−F), where Kd=325 nM for Fluo-3 according to manufacturer (Molecular Probes). Data are presented as mean±SEM (n=4-6) of the increase in intracellular calcium concentration.
U937-C5aR cells (10^7 cells/ml) were resuspended in HBSS-1% BSA containing 2 μM Fluo-3 AM and incubated at 37° C. for 40 minutes. Cells incubated without the dye were used as a control to measure autofluorescence (Fmin). Following the dye uptake, cells were washed twice then suspended at 5×10^6 cells/ml in HBSS containing 1% BSA. Cells were incubated for 30 min at 22° C. with either 50 nM DBP or 0.5 μM DBP peptide. For each measurement, 400 μl of cell suspension was added to a cuvette and stimulated with 0.1 nM purified C5a. Fluorescence was then measured immediately using a Perkin-Elmer LS-5 fluorometer at 505 nm excitation, 526 nm emission for Fluo-3 AM. Fmax was measured by treating labeled cells with 60 μM digitonin. Intracellular free calcium concentrations were calculated using the following formula: (Ca2+)=Kd (F−Fmin)/(Fmax−F), where Kd=325 nM for Fluo-3 according to manufacturer (Molecular Probes)

[3] = system: differentiated HL-60 cells; assay: Chemotaxis assay, differentiated HL-60 cells responding to C5a, C5a plus DBP or ZAS; assay type: cell-based, Human; conditions: for block of the cochemotactic function of full-length natural DBP (C5a+DBP) / HL-60 cell chemotactic response to complement-activated serum (ZAS): cells pretreated with 1 μM peptide 30 min; for block of the cochemotactic function of full-length natural DBP (C5a+DBP): 100 pM C5a plus 50 nM DBP, 60 min; for HL-60 cell chemotactic response to complement-activated serum (ZAS): 1% ZAS; for enhancement of C5a-mediated chemotaxis by the peptides: peptides by themselves or mixed together
Experimental: Cells (6×10^6/ml) were resuspended in chemotaxis buffer and treated either with chemotaxis buffer (control), 1 μM of peptide 1 (130-152), or 1 μM of peptide 2 (150-172) for 30 min at room temperature. The chemotactic response of differentiated HL-60 cells to 100 pM C5a alone, C5a plus 50 nM full-length natural DBP or 1% zymosan-activated serum (ZAS) was measured for 60 minutes at 37° C. Numbers represent net cell movement in 60 min, mean±SEM of 3 experiments.
(§2) Cells and cell culture: Human promyelocytic cell line HL-60 was obtained from ATCC (Rockville, Md.) and cultured in RPMI 1640 medium supplemented with 10% FBS. Differentiation of HL-60 cells was initiated with 250 μM Bt2cAMP for 48 hours.
Chemotaxis assay. Chemotaxis was performed as described previously (see Kew, R. R. et al., J. Leukoc. Biol. 58, 55-58 (1995)). In brief, 35 μl of C5a (0.01 to 1 nM) in the chemotaxis buffer (HBSS with 1% BSA, 10 mM HEPES) were placed in duplicate in the lower chamber of a 48-well chamber (Neuroprobe, Md.). The lower compartments were covered with a 5 μm pore cellulose nitrate filter and then 50 μl of the cell suspension (2.5×10^5/well) was pipetted into the upper compartments. The chemotactic chamber was incubated for 1 hour at 37° C. in a humidified incubator with 5% CO2. Following incubation, the filter was fixed, stained and mounted on a microscope slide. Cell movement was measured as the distance in microns that the leading front of the cells had migrated into the filter (see Zigmond, S. et al., J. Exp. Med. 137, 387 (1973)).

U937-C5aR cells [4] = assay: Biacore: U937-C5aR cell binding to immobilized DBP peptides; design: species or system human; conditions: FIG. 9B, 9C; peptide immobilized to Biacore sensor chip
Experimental: as §1
According to the present invention, the interaction of an immobilized ligand, e.g., immobilized DBP, binding to cells can be measure by any established technology available in the art, e.g., by surface plasmon resonance (SPR) or Biacore technology. For example, in the present invention, the binding of U937-C5aR cells to immobilized DBP were examined by Biacore technology, the result of which is used to further determine if the DBP peptides generated in the present invention can alter the interaction U937-C5aR cells and DBP. […] To investigate further the effect of DBP peptides on cell binding, peptide 1 (FIG. 9B) and peptide 2 (FIG. 9C) were immobilized to Biacore sensor chips. […] These Biacore experiments have provided a powerful quantitative tool to investigate the cell binding region on DBP and examine the effects on DBP peptides on this interaction.

[5] = system: differentiated HL-60 cells; assay: Ligand-induced calcium mobilization (Fluo-3 AM) in differentiated HL-60 cells; assay type: cell-based, Human; conditions: differentiated HL-60 cells incubated 30 min with 50 nM of indicated DBP, then C5a
Experimental: as §2
Ligand-induced calcium mobilization. Calcium mobilization studies were performed using the Fluo-3 AM probe as described previously (see Merritt, J. E. et al., Biochem. J. 269, 513-519 (1990)). Differentiated HL-60 cells (1×10^7 cells/ml) were resuspended in HBSS-1% BSA containing 2 μM Fluo-3 AM (Molecular Probes, Eugene, Oreg.) and incubated at 37° C. for 40 minutes. Cells incubated without the dye were used as a control to measure autofluorescence (Fmin). Following the dye uptake, cells were washed twice then suspended at 5×10^6 cells/ml in HBSS containing 1% BSA. Half of the cell suspension was treated with 50 nM DBP for 30 min at room temperature, the other half served as the untreated control. For each measurement, 400 μl of cell suspension (with or without DBP) was added to a cuvette and stimulated with various concentrations of purified C5a at room temperature (22-24° C.). Fluorescence was then measured immediately using a Perkin-Elmer LS-5 fluorometer at 505 nm excitation, 526 nm emission for Fluo-3 AM. Fmax was measured by treating labeled cells with 60 μM digitonin. Intracellular free calcium concentrations were calculated using the following formula: (Ca^2+)=Kd (F−Fmin)/(Fmax−F), where Kd=325 nM for Fluo-3 according to manufacturer (Molecular Probes).

G-actin = biological target: T2, G-actin (Oryctolagus cuniculus, UniProt P68135); assay: G-actin binding detected by non-denaturing PAGE; conditions: non-denaturing PAGE (data not shown)
T2 construct: G-actin was purified from rabbit skeletal muscle; from tissue; host or cells: rabbit skeletal muscle
Experimental: Functional characterization of reDBP. The capacity of reDBP to bind 25(OH)-vitamin D3 was measured to determine if the expressed proteins could functionally bind a physiological ligand. […] The ability of reDBPs to enhance C5a-mediated chemotaxis and Ca^2+ flux in differentiated HL-60 cells was determined next.

Row | G-actin binding (G-actin) | Molecule | inhibition of U937-C5aR cell binding to the DBP chip [1] | block of the DBP-enhanced C5a calcium signal (U937-C5aR cells [2]) | block of the cochemotactic function of full-length natural DBP (C5a+DBP) ([3]; listed as DBP peptide 1) | block of the cochemotactic function of full-length natural DBP (C5a+DBP) ([3]; listed as SEQ ID NO: 3) | HL-60 cell chemotactic response to complement-activated serum (ZAS) ([3]; listed as DBP peptide 1) | HL-60 cell chemotactic response to complement-activated serum (ZAS) ([3]; listed as SEQ ID NO: 3) | enhancement of C5a-mediated chemotaxis by the peptides [3] | U937-C5aR cell binding to immobilized peptide (U937-C5aR cells [4]) | block of the cochemotactic function of full-length natural DBP (C5a+DBP) [3] | enhancement of intracellular Ca2+ flux in response to C5a [5] | enhancement of C5a-mediated chemotaxis (net cell movement) ([3]; differentiated HL-60 cells, 100 pM C5a (FIG. 1: 25-200 pM) plus 50 nM of indicated DBP, 60 min at 37° C)
1 |  | EAFRKDPKEYANQFMWEYSTNYG [peptide 1, DBP residues 130-152] | no effect on cell binding | completely blocks | completely blocked the chemotactic enhancing effect of DBP | completely block | completely blocked | eliminate | could not enhance C5a-mediated chemotaxis | do not bind |  |  | 
2 |  | NYGQAPLSLLVSYTKSYLSMVGS [peptide 2, DBP residues 150-172] | about 50% |  |  |  |  |  | could not enhance C5a-mediated chemotaxis | do bind | not |  | 
3 | bound G-actin in a 1:1 molar complex | B1 |  |  |  |  |  |  |  |  |  | significantly enhanced | significantly enhanced
